# Measurements reported in ChEMBL document CHEMBL1131874, “Synthesis and apoptogenic activity of fluorinated ceramide and dihydroceramide analogues” (1999).
# Tests used:
# [1] = Apoptogenic activity against K-422 cells after 24 hr treatment at concentration 30 uM; format: functional, cell-based; settings: Homo sapiens
# [2] = Apoptogenic activity against Molt cells after 24 hr treatment at concentration 30 uM; format: functional, cell-based; settings: Homo sapiens
# [3] = organism: Homo sapiens; assay: Apoptogenic activity against peripheral blood lymphocytes after 24 hr treatment at concentration 30 uM; format: functional
# [4] = Aoptogenic activity against Molt cells after 24 hr treatment at concentration 30 uM; format: functional, cell-based; settings: Homo sapiens
Structure (SMILES),Cells [1] [%],Cells [2] [%],Cells [3] [%],Cells [4] [%]
CCCCCCCCCCCCC/C=C/[C@@H](O)[C@H](CO)NC(C)=O,27.7,51,48.8,–
CCCCCCCCC[C@H](F)[C@H](CO)NC(C)=O,7.3,–,3,3
CCCCCC(=O)N[C@@H](CO)[C@@H](F)CCc1ccccc1,2.5,2,0.5,–
CCCCCCCCC[C@H](O)[C@H](CO)NC(=O)CCCCC,15,9,57,–
CCCCCCCCC[C@H](F)[C@H](CO)NC(=O)CCCCC,32,31.6,46,–
CCCCCCC/C=C/[C@H](O)[C@H](CO)NC(=O)CCCCC,32.7,1,33.5,–
CCCCCCC/C=C/[C@@H](O)[C@H](CO)NC(=O)CCCCC,12.7,3.5,12,–
CCCCCCC/C=C/[C@@H](F)[C@H](CO)NC(=O)CCCCC,34.7,11,40,–
CCCCCCC/C=C/[C@H](F)[C@H](CO)NC(=O)CCCCC,51.2,13.7,47.7,–
